Source: patent US20250170090A1, “METHOD FOR PREVENTING OR TREATING DISEASE OR DISORDER ASSOCIATED WITH ANTINEOPLASTIC AGENT” (ONQUALITY PHARMACEUTICALS CHINA LTD., priority 2022, published 2025)
Like-named read-outs stand apart in the source and are kept apart here.

Legend:
[1] = tested on: hand-foot syndrome induced by anti-tumor agents; experiment: Prevention of hand-foot syndrome induced by anti-tumor agents in rats, NO-NSAID ointment on hind paws (Table 2-2); format: in vivo, SD rats; settings: Rattus norvegicus, topical, read-out: Control rate; for responders at 1 %: ointment 1% wt; for responders at 5 %: ointment 5% wt; for responders at 3 %: ointment 3% wt
Outline: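 Female SD rats (8 weeks, ~200 g; 10/group) received anti-tumour agents by daily oral gavage in Cremophor EL:ethanol 1:1 diluted ~3× with PBS. NO-NSAID or blank ointment was applied to hind paws once daily, 4 h restrained, then wiped off. Control rate = blank-group minus treated-group hand-foot syndrome incidence.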

HUVEC cells = experiment: CCK-8 cell viability: alleviation of proliferative toxicity of anti-tumor agents on HUVEC cells (Tables 7-1, 7-2); format: cell-based; settings: for activation at 100 µM: Homo sapiens, 24 h, percentage increase in viable cells vs anti-tumor agent alone, read-out: Response rate % (average)
Outline: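 HUVEC cells were treated with anti-tumor agent (DMSO solvent) alone or combined with NO-NSAID (ethanol or water solvent), and NO-NSAID solvent controls were used for correction. After 24-48 h of culture, viability was read by CCK-8 to derive proliferative toxicity and how much NO-NSAID mitigated it.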

[2] = 120 h, Sorafenib 80 mg/kg once a day, Days 5
[3] = 432 h, Cabozantinib 50 mg/kg once a day, Days 18
[4] = 432 h, Lenvatinib 100 mg/kg twice a day, Days 18
[5] = 432 h, Nintedanib 110 mg/kg once a day, Days 18
[6] = 432 h, Regorafenib 90 mg/kg once a day, Days 18
[7] = Afatinib (10 μM), NO-NSAID 100 μM
[8] = Cabozantinib (5 μM), NO-NSAID 100 μM
[9] = Dabrafenib (10 μM), NO-NSAID 100 μM
[10] = Everolimus (5 μM), NO-NSAID 100 μM
[11] = Infigratinib (15 μM), NO-NSAID 100 μM
[12] = Lapatinib (5 μM), NO-NSAID 100 μM
[13] = Lenvatinib (10 μM), NO-NSAID 100 μM
[14] = Olmutinib (10 μM), NO-NSAID 100 μM
[15] = Regorafenib (5 μM), NO-NSAID 100 μM
[16] = Selumetinib (5 μM), NO-NSAID 100 μM
[17] = Sorafenib (5 μM), NO-NSAID 100 μM
[18] = Sunitinib (5 μM), NO-NSAID 100 μM

SMILES: CC(=O)Oc1ccccc1C(=O)Oc1cccc(CO[N+](=O)[O-])c1 [Compound A2]
- responders at 1 % [1, 2]: 50%
- responders at 2 % ([1]; 120 h, Sorafenib 80 mg/kg once a day, ointment 2% wt, Days 5): 50%
- responders at 5 % [1, 2]: 66.7%
- responders at 10 % ([1]; 120 h, Sorafenib 80 mg/kg once a day, ointment 10% wt, Days 5): 80%
- responders at 3 % ([1]; 360 h, Apatinib 105 mg/kg once a day, Days 15): 50%
- responders at 3 % ([1]; 360 h, Encorafenib 80 mg/kg once a day, Days 15): 42.9%
- responders at 3 % ([1]; 360 h, Lapatinib 120 mg/kg twice a day, Days 15): 33.3%
- responders at 3 % ([1]; 360 h, Sunitinib 120 mg/kg once a day, Days 15): 42.9%
- responders at 3 % ([1]; 384 h, Fruquintinib 40 mg/kg once a day, Days 16): 71.4%
- responders at 3 % ([1]; 432 h, Anlotinib 20 mg/kg once a day, Days 18): 66.7%
- responders at 3 % ([1]; 432 h, Axitinib 50 mg/kg once a day, Days 18): 40%
- responders at 1 % [1, 3]: 28.6%
- responders at 2.5 % ([1]; 432 h, Cabozantinib 50 mg/kg once a day, ointment 2.50% wt, Days 18): 42.9%
- responders at 5 % [1, 3]: 66.7%
- responders at 1 % [1, 4]: 42.9%
- responders at 3 % [1, 4]: 42.9%
- responders at 5 % [1, 4]: 71.4%
- responders at 1 % [1, 5]: 33.3%
- responders at 3 % [1, 5]: 50%
- responders at 5 % [1, 5]: 66.7%
- responders at 1 % [1, 6]: 57.1%
- responders at 5 % [1, 6]: 66.7%
- responders at 3 % ([1]; 480 h, Erdafitinib 45 mg/kg once a day, Days 20): 71.4%
- responders at 3 % ([1]; 480 h, Olmutinib 100 mg/kg once a day, Days 20): 60%
- NO-NSAID response rate % (average) (HUVEC cells; Afatinib (10 μM), NO-NSAID 0.1 μM): 15%
- NO-NSAID response rate % (average) (HUVEC cells; Afatinib (10 μM), NO-NSAID 1 μM): 17%
- NO-NSAID response rate % (average) (HUVEC cells; [7]): 46%
- NO-NSAID response rate % (average) (HUVEC cells; Afatinib (10 μM), NO-NSAID 500 μM): 38%
- NO-NSAID response rate % (average) (HUVEC cells; Cabozantinib (5 μM), NO-NSAID 0.1 μM): 3%
- NO-NSAID response rate % (average) (HUVEC cells; Cabozantinib (5 μM), NO-NSAID 1 μM): 4%
- NO-NSAID response rate % (average) (HUVEC cells; [8]): 10%
- NO-NSAID response rate % (average) (HUVEC cells; Cabozantinib (5 μM), NO-NSAID 500 μM): 12%
- NO-NSAID response rate % (average) (HUVEC cells; Dabrafenib (10 μM), NO-NSAID 0.1 μM): 23%
- NO-NSAID response rate % (average) (HUVEC cells; Dabrafenib (10 μM), NO-NSAID 1 μM): 36%
- NO-NSAID response rate % (average) (HUVEC cells; [9]): 49%
- NO-NSAID response rate % (average) (HUVEC cells; Dabrafenib (10 μM), NO-NSAID 500 μM): 30%
- NO-NSAID response rate % (average) (HUVEC cells; Everolimus (5 μM), NO-NSAID 0.1 μM): −11%
- NO-NSAID response rate % (average) (HUVEC cells; Everolimus (5 μM), NO-NSAID 1 μM): −6%
- NO-NSAID response rate % (average) (HUVEC cells; [10]): 33%
- NO-NSAID response rate % (average) (HUVEC cells; Everolimus (5 μM), NO-NSAID 500 μM): −9%
- activation at 100 µM (HUVEC cells; [7]): 46%
- activation at 100 µM (HUVEC cells; Anlotinib (5 μM), NO-NSAID 100 μM): 78%
- activation at 100 µM (HUVEC cells; Apatinib (10 μM), NO-NSAID 100 μM): 56%
- activation at 100 µM (HUVEC cells; Axitinib (10 μM), NO-NSAID 100 μM): 77%
- activation at 100 µM (HUVEC cells; [8]): 10%
- activation at 100 µM (HUVEC cells; [9]): 49%
- activation at 100 µM (HUVEC cells; Dacomitinib (5 μM), NO-NSAID 100 μM): 12%
- activation at 100 µM (HUVEC cells; Encorafenib (5 μM), NO-NSAID 100 μM): 76%
- activation at 100 µM (HUVEC cells; Erdafitinib (10 μM), NO-NSAID 100 μM): 49%
- activation at 100 µM (HUVEC cells; [10]): 33%
- activation at 100 µM (HUVEC cells; Famitinib (5 μM), NO-NSAID 100 μM): 31%
- activation at 100 µM (HUVEC cells; Fruquintinib (10 μM), NO-NSAID 100 μM): 41%
- activation at 100 µM (HUVEC cells; Gefitinib (10 μM), NO-NSAID 100 μM): 76%
- activation at 100 µM (HUVEC cells; [11]): 73%
- activation at 100 µM (HUVEC cells; [12]): 16%
- activation at 100 µM (HUVEC cells; [13]): 34%
- activation at 100 µM (HUVEC cells; [14]): 33%
- activation at 100 µM (HUVEC cells; [15]): 50%
- activation at 100 µM (HUVEC cells; [16]): 83%
- activation at 100 µM (HUVEC cells; [17]): 56%
- activation at 100 µM (HUVEC cells; [18]): 65%
- activation at 100 µM (HUVEC cells; Vemurafenib (5 μM), NO-NSAID 100 μM): 54%
- NO-NSAID response rate % (average) (HUVEC cells; Infigratinib (15 μM), NO-NSAID 0.1 μM): 30%
- NO-NSAID response rate % (average) (HUVEC cells; Infigratinib (15 μM), NO-NSAID 1 μM): 18%
- NO-NSAID response rate % (average) (HUVEC cells; [11]): 73%
- NO-NSAID response rate % (average) (HUVEC cells; Infigratinib (15 μM), NO-NSAID 500 μM): 17%
- NO-NSAID response rate % (average) (HUVEC cells; Lapatinib (5 μM), NO-NSAID 0.1 μM): 14%
- NO-NSAID response rate % (average) (HUVEC cells; Lapatinib (5 μM), NO-NSAID 1 μM): 32%
- NO-NSAID response rate % (average) (HUVEC cells; [12]): 16%
- NO-NSAID response rate % (average) (HUVEC cells; Lapatinib (5 μM), NO-NSAID 500 μM): 20%
- NO-NSAID response rate % (average) (HUVEC cells; Lenvatinib (10 μM), NO-NSAID 0.1 μM): 25%
- NO-NSAID response rate % (average) (HUVEC cells; Lenvatinib (10 μM), NO-NSAID 1 μM): 24%
- NO-NSAID response rate % (average) (HUVEC cells; [13]): 34%
- NO-NSAID response rate % (average) (HUVEC cells; Lenvatinib (10 μM), NO-NSAID 500 μM): 31%
- NO-NSAID response rate % (average) (HUVEC cells; Olmutinib (10 μM), NO-NSAID 0.1 μM): 24%
- NO-NSAID response rate % (average) (HUVEC cells; Olmutinib (10 μM), NO-NSAID 1 μM): 24%
- NO-NSAID response rate % (average) (HUVEC cells; [14]): 33%
- NO-NSAID response rate % (average) (HUVEC cells; Olmutinib (10 μM), NO-NSAID 500 μM): 23%
- NO-NSAID response rate % (average) (HUVEC cells; Regorafenib (5 μM), NO-NSAID 0.1 μM): 32%
- NO-NSAID response rate % (average) (HUVEC cells; Regorafenib (5 μM), NO-NSAID 1 μM): 30%
- NO-NSAID response rate % (average) (HUVEC cells; [15]): 50%
- NO-NSAID response rate % (average) (HUVEC cells; Regorafenib (5 μM), NO-NSAID 500 μM): 36%
- NO-NSAID response rate % (average) (HUVEC cells; Selumetinib (5 μM), NO-NSAID 0.1 μM): 34%
- NO-NSAID response rate % (average) (HUVEC cells; Selumetinib (5 μM), NO-NSAID 1 μM): 48%
- NO-NSAID response rate % (average) (HUVEC cells; [16]): 83%
- NO-NSAID response rate % (average) (HUVEC cells; Selumetinib (5 μM), NO-NSAID 500 μM): 30%
- NO-NSAID response rate % (average) (HUVEC cells; Sorafenib (5 μM), NO-NSAID 0.1 μM): 5%
- NO-NSAID response rate % (average) (HUVEC cells; Sorafenib (5 μM), NO-NSAID 1 μM): 20%
- NO-NSAID response rate % (average) (HUVEC cells; [17]): 56%
- NO-NSAID response rate % (average) (HUVEC cells; Sorafenib (5 μM), NO-NSAID 500 μM): 17%
- NO-NSAID response rate % (average) (HUVEC cells; Sunitinib (5 μM), NO-NSAID 0.1 μM): 13%
- NO-NSAID response rate % (average) (HUVEC cells; Sunitinib (5 μM), NO-NSAID 1 μM): 7%
- NO-NSAID response rate % (average) (HUVEC cells; [18]): 65%
- NO-NSAID response rate % (average) (HUVEC cells; Sunitinib (5 μM), NO-NSAID 500 μM): 2%
